Laboratory results as given in patent publication US12139488B2, “Pyrido[3,2-d]pyrimidine compounds uses thereof for treating a proliferative disease” (Universite de Montreal, priority 2021, dated 2024).
Like-named read-outs stand apart in the source and are kept apart here.

Assays:
ARAF = ARAF (Homo sapiens (Human), UniProt P10398); test: ARAF kinase activity assay (AlphaLISA p-MEK 1/2 detection); type: biochemical
Description: Compound preparation: solid samples of each substances in 1 dram vials were suspended in DMSO (Fisher Scientific) at a stock concentration of 20 mM. Stocks were kept at −20° C. and protected from light. If solubility of the compound at 20 mM appeared to be an issue, the initial concentration of the DMSO stock was changed to 10 mM or 5 mM.
In vitro enzymatic reactions were used for evaluating compounds intrinsic activity against BRAF, CRAF and ARAF. For BRAF and CRAF, 0.375 nM of purified GST-tagged kinases (cat #B4062-10 UG and cat #R1656-10 UG respectively from Millipore Sigma) were incubated with 75 nM of kinase-dead MEK1 substrate (cat #40075; BPS Bioscience) in the presence of 10 μM of Ultrapure ATP (cat #V9102; Promega; part V915A) with and without the test compound in a buffer containing 50 mM HEPES pH 7.5, 10 mM MgCl2, 1 mM EDTA, 0.01% Brij-35 and 2 mM DTT. Separate reactions were performed with the MEK1 substrate and ATP as a blank control. ARAF, kinase reactions were rigorously the same with the exception that kinase concentration was raised to 3.75 nM (cat #1768-0000-1; Reaction Biology).
(§1) For compound treatment, 5 μL/well of test substance solution are placed in a 384-well proxyplate (Perkin Elmer) and mixed with 2× concentrated kinase reactions. The dilution series is selected so that nine concentrations cover a range from 100 nM to 0.01 nM. […] The final concentration of DMSO in the assay is set at 0.05%.
ARAF kinase reactions were carried out for a total of 2 hours at 30° C. and then stopped by addition of EDTA at a final concentration of 40 mM. Reactions were then detected using the AlphaLISA® SureFire® Ultra™ p-MEK 1/2 (Ser218/222) (PerkinElmer) kit. Reactions were performed with 5 μL of kinase reaction according to the manufacturer's specifications in 384-well proxyplates (Perkin Elmer) followed by overnight incubation of the AlphaLISA® reactions at room temperature in a humidified chamber. After completion of the detection reactions, the signals were recorded on a Synergy Neo2 plate reader (Biotek) equipped with AlphaLISA® filters. The effect of each compound dilution on the pMEK signal generated by ARAF reactions was expressed in % inhibition and calculated as follows. An internal 100% inhibition control (average of luminescence in kinase reactions comprising kinase dead MEK1 substrate alone) was included in each plate to measure of pMEK background and was subtracted from each data point. The average of DMSO (vehicle) controls (set as 0% inhibition) was also established and used to calculate % inhibition: % inhibition=100*(1−((pMEK signalcompound)/(pMEK signalDMSO)))
IC50 values were obtained by plotting the kinase inhibition values and fitting the dose-activity curves using a log(agonist) versus response-variable slope (four parameters) function using either GraphPadPrism (V7.0) or Dotmatics Screening Ultra platform. Standards included in the ARAF kinase assay were Belvarafenib (MedChem Express cat #HY-109080; CAS #1446113-23-0), LXH254 (MedChem Express cat #HY-112089; CAS #1800398-38-2) and BGB283 (cat #HY-18957; CAS #1446090-79-4).

[1] = test system: pERK in HCT-116 cells (KRAS G13D); test: Phospho-ERK inhibition (AlphaLISA SureFire Ultra p-ERK 1/2), HCT116; type: cell-based, human
How it was run: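 pERK1/2 (Thr202/Tyr204) AlphaLISA, 1 h cpd, 10 conc. 10 μM→0.33 nM, 0.5% DMSO, RPMI-1640 + 5% FBS. Trametinib = 100%, DMSO = 0%. IC50, 4-param fit.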

CRAF = CRAF (Homo sapiens, UniProt P04049); test: CRAF kinase activity assay (ADP-Glo); type: biochemical; conditions: read-out: Kinase IC50 (nM) CRAF
How it was run: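 ADP-Glo luminescence assay of BRAF and CRAF kinase reactions with MEK1 substrate and ATP. Reactions ran 2 h at 30 °C with compound over nine concentrations from 100 nM to 0.01 nM, at 0.05% DMSO final. IC50 came from four-parameter variable-slope fits of % inhibition.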

[2] = test system: pERK in SW480 cells (KRAS G12D); test: Phospho-ERK inhibition (AlphaLISA), SW480; type: cell-based, human
Description: All cancer cell lines (A375, A101D, A2058, RKO, HT29 SK-MEL 30, IPC298, HepG2, HCT-116, Lovo, SWV620, SW480, NCI-H358, NCI-H2122, Calu-6, NCIH2087, NCIH1755, NCIH1666 and Mewo) were obtained from ATCC and cultured in RPMI-1640 medium (Gibco) supplemented with 5% heat inactivated fetal bovine serum (FBS, Wisent) at 37° C. under 5% CO2. Cells were maintained in T175 flasks (Greiner). They were passaged by removing the culture medium, washing once in 10 mL of room temperature Phosphate Buffered Saline (PBS; Wisent) and incubating at 37° C. with 2 mL of 0.05% Trypsin (Thermo-Fisher). Trypsin was then inactivated by adding complete growth medium and the cells were then replated in a T175 culture dish at the appropriate dilution. All cell lines were routinely tested for mycoplasma contamination. Tissue type and mutational status of each cell line can be found in Table B.
AlphaLISA® SureFire® Ultra™ p-ERK 1/2 (Thr202/Tyr204) analysis was conducted on cells plated in 100 μL of complete RPMI-1640 growth medium in 96-well flat-bottomed transparent dishes (Costar) at a density indicated in Table C. Cells were maintained overnight at 37° C. under 5% CO2 before treatment with compounds' dilution series for one hour. The cell density in cells/cm^2 corresponds to cell number divided by the area of one well of a 96-well plate ([…]).
In a dilution series 100 μL/well of test substance dilution prepared in complete RPMI-1640 growth media was added to the cells. The dilution series is selected so that ten concentrations cover a range from 10 μM to 0.33 nM. If necessary the initial concentration of 10 μM is increased to 100 μM or lowered to 1 μM (as in the case of A375 and H1666 cells, which are generally more sensitive to the compounds) and further dilution is carried out accordingly. The final concentration of DMSO in the assay is set at 0.5%.
After treatment, media was removed and cells were lysed in 50 μL of 1× AlphaScreen Ultra Lysis Buffer (Perkin Elmer). The AlphaLISA® SureFire® Ultra™ p-ERK 1/2 (Thr202/Tyr2O4) (PerkinElmer) reactions were performed with 5 μL of cell lysate according to the manufacturer's specifications in 384-well proxyplates (Perkin Elmer) followed by overnight incubation of the reactions at room temperature in a humidified chamber. After completion of the reactions, the signals were recorded on an EnVision plate reader (Perkin Elmer) using built in AlphaLISA® settings.
The effect of each compound dilution on the pERK signal was expressed in % inhibition and calculated as follows. An internal 100% inhibition control ([…] trametinib, cat #HY-10999; MedChem Express; CAS #871700-17-3) was included in each plate and used as a measure of pERK background. First, the value obtained for trametinib was subtracted from each data point. The average of DMSO (vehicle) controls (set as 0% inhibition) was established and used to calculate % inhibition: % inhibition=100*(1-((pERK signalcompound)/(pERK signalDMSO)))
The ability of each compound to inhibit pERK signal was expressed as an IC50 value obtained by plotting the inhibition values for each data point of a dilution series and fitting the obtained curves using a log(agonist) versus response-variable slope (four parameters) function using GraphPadPrism (V7.0) or Dotmatics Screening Ultra platform.
When present, paradoxical pERK induction is inferred from the negative % inhibition values observed in the pERK IC50 curves of a compound.

BRAF = BRAF (Homo sapiens (Human), UniProt P15056); test: BRAF kinase activity assay (ADP-Glo); type: biochemical; conditions: read-out: Kinase IC50 (nM) BRAF
Description: Compound preparation: solid samples of each substances in 1 dram vials were suspended in DMSO (Fisher Scientific) at a stock concentration of 20 mM. Stocks were kept at −20° C. and protected from light.
In vitro enzymatic reactions were used for evaluating compounds intrinsic activity against BRAF, CRAF and ARAF. […] Separate reactions were performed with the MEK1 substrate and ATP as a blank control.
as §1
BRAF and CRAF kinase reactions were carried out for a total of 2 hours at 30° C. and then stopped by ½ dilution in ADP-Glo Reagent (cat #V9102; Promega; part V912C). Reactions were then incubated for 1h at room temperature before addition of one volume of Kinase Detection Reagent (cat #V9102; Promega; part V917A). Plates were then equilibrated at room temperature for 30 minutes before detection of luminescence on a Synergy Neo2 plate reader (Biotek). The effect of each compound dilution on BRAF and CRAF kinase activity was expressed as % inhibition and calculated as follows.
IC50 values were obtained by plotting the kinase inhibition values and fitting the dose-activity curves using a log(agonist) versus response-variable slope (four parameters) function using either GraphPadPrism (V7.0) or Dotmatics Screening Ultra platform.

[3] = HCT116 cells, class symbol before the bracket
[4] = SW480 cells, class symbol before the bracket

Sequence of BRAF (P15056 whole entry): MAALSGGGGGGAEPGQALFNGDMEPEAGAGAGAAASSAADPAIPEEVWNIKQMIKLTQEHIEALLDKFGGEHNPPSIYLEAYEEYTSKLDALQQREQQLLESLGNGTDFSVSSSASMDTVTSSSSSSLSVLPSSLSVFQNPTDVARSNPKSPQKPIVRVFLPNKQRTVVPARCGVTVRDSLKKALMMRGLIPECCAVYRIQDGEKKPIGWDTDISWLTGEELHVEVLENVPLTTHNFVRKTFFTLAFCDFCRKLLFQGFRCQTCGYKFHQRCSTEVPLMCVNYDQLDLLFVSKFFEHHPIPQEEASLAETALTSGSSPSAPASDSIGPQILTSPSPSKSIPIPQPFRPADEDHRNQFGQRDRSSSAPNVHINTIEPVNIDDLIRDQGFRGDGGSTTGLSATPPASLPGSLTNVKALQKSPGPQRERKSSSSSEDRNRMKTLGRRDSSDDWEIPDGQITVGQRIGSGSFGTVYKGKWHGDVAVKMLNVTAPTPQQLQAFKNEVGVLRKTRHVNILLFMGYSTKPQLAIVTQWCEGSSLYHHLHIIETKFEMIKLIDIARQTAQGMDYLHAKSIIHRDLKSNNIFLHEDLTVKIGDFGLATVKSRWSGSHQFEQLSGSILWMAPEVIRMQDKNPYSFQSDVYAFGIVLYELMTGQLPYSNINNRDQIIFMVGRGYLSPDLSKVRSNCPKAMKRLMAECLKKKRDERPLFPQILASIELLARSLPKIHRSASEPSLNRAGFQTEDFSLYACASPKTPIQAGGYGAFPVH
Sequence of CRAF (P04049 whole entry, looked up): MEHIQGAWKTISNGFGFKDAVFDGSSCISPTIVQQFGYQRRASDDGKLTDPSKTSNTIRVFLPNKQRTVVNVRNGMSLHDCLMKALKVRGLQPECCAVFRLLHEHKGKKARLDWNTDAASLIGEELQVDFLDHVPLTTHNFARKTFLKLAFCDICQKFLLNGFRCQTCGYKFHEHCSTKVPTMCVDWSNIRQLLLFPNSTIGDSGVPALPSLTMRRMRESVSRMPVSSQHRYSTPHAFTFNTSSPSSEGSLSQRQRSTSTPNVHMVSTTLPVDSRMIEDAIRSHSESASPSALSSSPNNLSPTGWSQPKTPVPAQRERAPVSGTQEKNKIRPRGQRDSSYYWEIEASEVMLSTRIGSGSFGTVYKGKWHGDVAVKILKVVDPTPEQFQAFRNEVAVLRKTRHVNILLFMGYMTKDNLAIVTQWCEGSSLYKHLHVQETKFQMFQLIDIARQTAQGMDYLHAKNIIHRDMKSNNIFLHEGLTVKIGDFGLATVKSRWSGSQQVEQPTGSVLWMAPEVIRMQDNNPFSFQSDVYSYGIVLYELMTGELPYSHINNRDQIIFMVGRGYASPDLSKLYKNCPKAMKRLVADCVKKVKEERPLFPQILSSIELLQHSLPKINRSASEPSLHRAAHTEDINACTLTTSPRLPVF
Sequence of ARAF (P10398 whole entry): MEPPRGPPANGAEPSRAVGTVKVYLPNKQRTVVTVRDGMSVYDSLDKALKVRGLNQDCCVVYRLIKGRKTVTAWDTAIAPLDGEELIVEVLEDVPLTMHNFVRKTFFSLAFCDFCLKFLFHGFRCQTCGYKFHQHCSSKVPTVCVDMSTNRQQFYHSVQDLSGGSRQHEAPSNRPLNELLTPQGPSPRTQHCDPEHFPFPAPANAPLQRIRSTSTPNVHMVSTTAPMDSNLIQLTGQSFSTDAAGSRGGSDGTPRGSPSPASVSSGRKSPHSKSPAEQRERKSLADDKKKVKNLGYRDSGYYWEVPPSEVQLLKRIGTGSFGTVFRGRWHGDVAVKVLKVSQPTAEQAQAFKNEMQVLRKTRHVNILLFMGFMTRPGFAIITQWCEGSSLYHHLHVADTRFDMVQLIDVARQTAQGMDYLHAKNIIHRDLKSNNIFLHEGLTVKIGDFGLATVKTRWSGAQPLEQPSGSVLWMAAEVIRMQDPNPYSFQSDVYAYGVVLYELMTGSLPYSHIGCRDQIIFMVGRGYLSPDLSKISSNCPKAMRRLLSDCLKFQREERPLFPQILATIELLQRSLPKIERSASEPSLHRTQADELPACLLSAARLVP

| SMILES | HCT116 pERK Ymin % ([1]; HCT116 cells, Ymin in brackets) | IC50 [1, 3] | IC50 (CRAF) | SW480 pERK Ymin % ([2]; SW480 cells, Ymin in brackets) | IC50 [2, 4] | IC50 (BRAF) | other results |
| --- | --- | --- | --- | --- | --- | --- | --- |
| Cc1ccc(NC(=O)c2ccnc(C(F)(F)F)c2)cc1-c1cc(OCCO)nc(N2CCOCC2)c1 [LXH254, reference compound] |  |  |  |  |  |  | IC50 (ARAF): > 10 nM |
| COc1ccc(S(=O)(=O)Nc2ccc(F)c(Nc3ncnc4ccc(-n5cnc6c(N)cccc65)nc34)c2F)c(C)c1 [Ex 76] | 8% | < 0.5 µM | 10 to 50 nM | 6% | < 0.5 µM | 1 to 10 nM |  |
| COc1cncc(-c2ccc3ncnc(Nc4c(F)ccc(NS(=O)(=O)c5ccc(OC)cc5C)c4F)c3n2)c1 [Ex 62] | −9% | 1 to 10 µM | > 50 nM | 8% | 1 to 10 µM | > 10 nM |  |
| COc1ccc(S(=O)(=O)Nc2ccc(F)c(Nc3ncnc4ccc(-n5cnc6ccccc65)nc34)c2F)cc1 [Example 1] |  |  | 10 to 50 nM |  |  | 1 to 10 nM | IC50 ([1]; HCT116 cells, 1 h treatment): 1 to 10 µM; HCT116 pERK Ymin % ([1]; lowest % inhibition value of the IC50 curve, HCT116): 8%; IC50 ([2]; SW480 cells, 1 h treatment): 1 to 10 µM; SW480 pERK Ymin % ([2]; lowest % inhibition value of the IC50 curve, SW480): 4% |
| COc1ccc(S(=O)(=O)Nc2ccc(F)c(Nc3ncnc4ccc(-c5cncs5)nc34)c2F)c(C)c1 [Ex 59] | −0.7% | 0.5 to 1 µM | 10 to 50 nM | −4.9% | 0.5 to 1 µM | > 10 nM |  |
| O=S(=O)(Nc1ccc(F)c(Nc2ncnc3ccc(-c4cncs4)nc23)c1F)c1ccccc1Cl [Ex 67] | −3.6% | 0.5 to 1 µM | 10 to 50 nM | −1.3% | 0.5 to 1 µM | 1 to 10 nM |  |
| COc1ccc(S(=O)(=O)Nc2ccc(F)c(Nc3ncnc4ccc(-n5cnc6c(C(N)=O)cccc65)nc34)c2F)c(C)c1 [Example 75] | 0% | 0.5 to 1 µM | 10 to 50 nM | 1% | 0.5 to 1 µM | > 10 nM |  |
| CN(C)C(=O)c1cn(-c2ccc3ncnc(Nc4c(F)ccc(NS(=O)(=O)c5ccccc5Cl)c4F)c3n2)c2cccc(N)c12 [Example 96] | 12% | < 0.5 µM | > 50 nM | 12% | < 0.5 µM | < 1 nM |  |
| Cc1ncn(-c2ccc3ncnc(Nc4c(F)ccc(NS(=O)(=O)c5ccccc5Cl)c4F)c3n2)c1C [Ex 66] | −2% | 1 to 10 µM | 10 to 50 nM | −5% | 1 to 10 µM | 1 to 10 nM |  |
| Nc1cccc2c1nnn2-c1ccc2ncnc(Nc3c(F)ccc(NS(=O)(=O)c4cccc(Cl)c4Cl)c3F)c2n1 [Example 100] | −16% | < 0.5 µM | < 10 nM | 16% | < 0.5 µM | < 1 nM |  |
| COc1ccc(S(=O)(=O)Nc2ccc(F)c(Nc3ncnc4ccc(-c5cnn6ccccc56)nc34)c2F)c(C)c1 [Ex 73] | 5% | 1 to 10 µM | > 50 nM | −1% | 1 to 10 µM | > 10 nM |  |
| Cc1c(Cl)cccc1S(=O)(=O)Nc1cccc(Nc2ncnc3ccc(-n4cnc5ccccc54)nc23)c1F [Example 240] |  |  |  |  |  |  | IC50 ([1]; HCT116 cells, Table 5): < 0.5 µM; HCT116 pERK Ymin % ([1]; lowest value of the curve, HCT116, Table 5): 7%; IC50 (CRAF; Table 5): 10 to 50 nM; IC50 ([2]; SW480 cells, Table 5): < 0.5 µM; SW480 pERK Ymin % ([2]; lowest value of the curve, SW480, Table 5): (−8) %; IC50 (BRAF; Table 5): 1 to 10 nM |
| Nc1ncnc2c1ncn2-c1ccc2ncnc(Nc3c(F)ccc(NS(=O)(=O)c4ccccc4Cl)c3F)c2n1 [Ex 89] | 8% | 1 to 10 µM | > 50 nM | −3% | 1 to 10 µM | 1 to 10 nM |  |
